Data: US8952024B2, “Herbicidal pyrimidone derivatives” (E I du Pont de Nemours and Company, priority 2009, dated 2015)

How the values were obtained:
Assay in all cases: Test B pre-/postemergence plant response
Format in all cases: in vivo
Conditions in all cases: Postemergence
[1] = test system: Italian ryegrass (Lolium multiflorum)
Outline: (§1)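 Seeds were sown in loam soil/sand blend and treated preemergence with compound in non-phytotoxic solvent mixture containing surfactant; postemergence sprays, same formulation, went onto plants 2 to 18 cm (1- to 4-leaf stage) in peat-based planting medium. Greenhouse 13 to 15 days, then visual rating versus untreated controls, 0 (no effect) to 100 (complete control).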

[2] = test system: bermudagrass (Cynodon dactylon)
Outline: as §1

corn (Zea mays) = test system: corn (Zea mays)
Outline: as §1

[3] = test system: downy bromegrass (Bromus tectorum)
Outline: as §1

[4] = test system: giant foxtail (Setaria faberii)
Outline: as §1

[5] = test system: goosegrass (Eleusine indica)
Outline: as §1

[6] = test system: green foxtail (Setaria viridis)
Outline: as §1

[7] = test system: johnsongrass (Sorghum halepense)
Outline: as §1

[8] = test system: large crabgrass (Digitaria sanguinalis)
Outline: as §1

[9] = test system: morningglory (Ipomoea coccinea)
Outline: as §1

[10] = test system: ragweed (common ragweed, Ambrosia elatior)
Outline: as §1

[11] = test system: woolly cupgrass (Eriochloa villosa)
Outline: as §1

[12] = test system: yellow nutsedge (Cyperus esculentus)
Outline: as §1

[13] = 31 g ai/ha, scale 0 to 100 (0 no effect, 100 complete control)
[14] = 62 g ai/ha, scale 0 (no effect) to 100 (complete control), 13 to 15 days
[15] = 125 g ai/ha, visual rating after 13 to 15 days, scale 0 (no effect) to 100 (complete control)

Cc1ccc(-n2c(-c3ccccc3)ncc(C(=O)C3=C(O)CCCC3=O)c2=O)cc1 [Compound 8]
Plant response rating, Ryegrass, Italian [1, 13]: 20
Plant response rating, Ryegrass, Italian [1, 14]: 20
Plant response rating, Ryegrass, Italian [1, 15]: 30
Ryegrass, Italian plant response rating ([1]; 250 g ai/ha, scale 0 to 100): 50
Plant response rating, Bermudagrass [2, 13]: 60
Plant response rating, Bermudagrass [2, 14]: 85
Plant response rating, Bermudagrass ([2]; 125 g ai/ha, scale 0 to 100 (0 no effect, 100 complete control), 13 to 15 days): 95
Bermudagrass plant response rating ([2]; 250 g ai/ha, scale 0 to 100): 100
Plant response rating, Corn (corn (Zea mays); [13]): 15
Plant response rating, Corn (corn (Zea mays); [14]): 65
Plant response rating, Corn (corn (Zea mays); [15]): 75
Corn plant response rating (corn (Zea mays); 250 g ai/ha, scale 0 to 100): 80
Plant response rating, Bromegrass, Downy [3, 13]: 5
Plant response rating, Bromegrass, Downy [3, 14]: 5
Plant response rating, Bromegrass, Downy [3, 15]: 10
Bromegrass, Downy plant response rating ([3]; 250 g ai/ha, scale 0 to 100): 10
Plant response rating, Foxtail, Giant [4, 13]: 98
Plant response rating, Foxtail, Giant [4, 14]: 100
Plant response rating, Foxtail, Giant [4, 15]: 100
Foxtail, Giant plant response rating ([4]; 250 g ai/ha, scale 0 to 100): 100
Plant response rating, Goosegrass [5, 13]: 80
Plant response rating, Goosegrass [5, 14]: 85
Plant response rating, Goosegrass [5, 15]: 95
Goosegrass plant response rating ([5]; 250 g ai/ha, scale 0 to 100): 100
Plant response rating, Foxtail, Green [6, 13]: 40
Plant response rating, Foxtail, Green [6, 14]: 70
Plant response rating, Foxtail, Green [6, 15]: 85
Foxtail, Green plant response rating ([6]; 250 g ai/ha, scale 0 to 100): 95
Plant response rating, Johnsongrass [7, 13]: 80
Plant response rating, Johnsongrass [7, 14]: 98
Plant response rating, Johnsongrass [7, 15]: 98
Johnsongrass plant response rating ([7]; 250 g ai/ha, scale 0 to 100): 100
Plant response rating, Crabgrass, Large [8, 13]: 70
Plant response rating, Crabgrass, Large [8, 14]: 85
Plant response rating, Crabgrass, Large [8, 15]: 90
Crabgrass, Large plant response rating ([8]; 250 g ai/ha, scale 0 to 100): 100
Plant response rating, Morningglory [9, 13]: 75
Plant response rating, Morningglory [9, 14]: 90
Plant response rating, Morningglory [9, 15]: 100
Morningglory plant response rating ([9]; 250 g ai/ha, scale 0 to 100): 100
Plant response rating, Ragweed [10, 13]: 90
Plant response rating, Ragweed [10, 14]: 100
Plant response rating, Ragweed [10, 15]: 100
Ragweed plant response rating ([10]; 250 g ai/ha, scale 0 to 100): 100
Plant response rating, Cupgrass, Woolly [11, 13]: 75
Plant response rating, Cupgrass, Woolly [11, 14]: 80
Plant response rating, Cupgrass, Woolly [11, 15]: 90
Cupgrass, Woolly plant response rating ([11]; 250 g ai/ha, scale 0 to 100): 100
Plant response rating, Nutsedge, Yellow [12, 13]: 65
Plant response rating, Nutsedge, Yellow [12, 14]: 70
Plant response rating, Nutsedge, Yellow [12, 15]: 80
Nutsedge, Yellow plant response rating ([12]; 250 g ai/ha, scale 0 to 100): 85
